# Test: Solubility of fatty acid sodium salts and salt precipitation/anion exchange with Dutogliptin tartrate
# Assay type: physicochemical
# Conditions: for Solubility 2-8° C. / Solubility 25° C.: volume for the stated amount of substance (0.41 mmol Dutogliptin tartrate, 0.83 mmol fatty acid salts); for Precipitation after addition of Dutogliptin tartrate solution: 100 mg/ml Dutogliptin tartrate solution, 2-8° C.
# Procedure: Assuming that the ion lattice of Dutogliptin tartrate (dissolved in water) is pulled apart so that the individual Dutogliptin and tartrate ions are in solution, an exchange should take place by adding excess fatty acid anions. The resulting hydrophobic salt should form and precipitate due to reduced solubility.
# To promote the exchange, the salts, which were dissolved at room temperature, were cooled to 2-8° C. after the addition of Dutogliptin tartrate and stirred overnight.
# Five different physiologic fatty acids (as sodium salts) were prepared by anion exchange of the tartrates with a double molar addition of the salts at a reduced temperature (reduced Dutogliptin tartrate solubility).
# [1] = listed as sodium cholate, hydrate
SMILES,Solubility 2-8° C.,Solubility 25° C. [mL],Precipitation after addition of Dutogliptin tartrate solution (hydrate),Precipitation after addition of Dutogliptin tartrate solution [1],Solubility 2-8° C. (hydrate),Solubility 2-8° C. [1]
CCCCCCCCCCCC(=O)[O-].[Na+] [Sodium Laurate],not soluble,10,,,,
CCCCCCCCCCCCCC(=O)[O-].[Na+] [Sodium Myristate],not soluble,>10,,,,
C[C@H](CCC(=O)[O-])[C@H]1CC[C@H]2[C@@H]3[C@H](O)C[C@@H]4C[C@H](O)CC[C@]4(C)[C@H]3C[C@H](O)[C@]12C.O.[Na+] [Sodium cholate hydrate],,5,no precipitation,no visual evidence of turbidity or precipitation,"5 mL, clear",remained sufficient soluble

# From patent US20250295680A1, “NOVEL DUTOGLIPTIN FORMULATIONS AND THEIR PREPARATION” (Recardio Inc., priority 2022, published 2025)
